# Assay results as given in PMC7604625, “Glycolysis regulates Hedgehog signalling via the plasma membrane potential” (The EMBO Journal, 2020).
# Assays:
# [1] = test system: plasma membrane potential of wing discs; experiment: Membrane potential assay with DiBAC4(3) in wing discs; assay type: cell-based, Drosophila; conditions: wing discs incubated with 1 μM gramicidin A for 30 min at 29°C
# Experimental: To investigate the plasma membrane potential, we used the membrane potential‐sensitive dye DiBAC4(3) (Thermo Fisher Scientific, #B438). Wing discs from up‐crawling third‐instar larvae were dissected in Grace's medium supplemented with 5% FBS and 20 nM 20‐hydroxyecdysone (full medium) (Dye et al, 2017), and incubated with 500 nM DiBAC4(3) in full medium for 15 min at 29°C. After washing twice with full medium, wing discs were mounted and imaged immediately. A higher fluorescence intensity of DiBAC4(3) indicates depolarization of the plasma membrane. […]
# Only ring glands and wing discs that were processed in parallel, imaged using the same microscope settings, and properly mounted were used for quantifications. For quantification of immunohistochemical staining of CD8::GFP in ring glands, the mean pixel intensity of two regions of interest of 25 × 25 μm per ring gland was determined using ROI manager, and the average of these was used for the statistical analysis. For quantification of compartment size, wing disc folds served as morphological landmarks to outline the region of the wing pouch and the D/V boundary. The area of dorsal and ventral compartment was then determined using ROI manager. […] The A/P boundary was determined according to anti‐Ci155 or anti‐Ptc co‐immunostaining. […] The mean grey value was measured using ROI manager. […] The integrated density was measured using ROI manager. […]
# [2] = test system: PAC-NAE uptake into wing discs; experiment: Lipophorin-mediated PAC-NAE uptake in wing discs; assay type: cell-based, Drosophila
# Experimental: The isolation procedure of Lipophorin (Lpp) particles was adapted from Panakova et al (2005). Briefly, 10 ml feeding third‐instar larvae were first washed with water and then with TNE buffer (100 mM Tris–HCl pH 7.5, 150 mM NaCl, 0.2 mM EGTA, cOmplete™ protease inhibitor cocktail (Roche, #000000011697498001)). All following steps were conducted at 4 °C (unless stated otherwise). Larvae were homogenized in TNE buffer in a tissue grinder with a loose pestle, and the homogenate was centrifuged for 10 min at 1,000 × g and afterwards for 3 h at 142,000 × g. The resulting supernatant (10 ml) was mixed with 40 μl 10 mM PAC‐NAE (EtOH solution) and sonicated for 5 min. […]
# Only ring glands and wing discs that were processed in parallel, imaged using the same microscope settings, and properly mounted were used for quantifications. For quantification of immunohistochemical staining of CD8::GFP in ring glands, the mean pixel intensity of two regions of interest of 25 × 25 μm per ring gland was determined using ROI manager, and the average of these was used for the statistical analysis. For quantification of compartment size, wing disc folds served as morphological landmarks to outline the region of the wing pouch and the D/V boundary. The area of dorsal and ventral compartment was then determined using ROI manager. […] The A/P boundary was determined according to anti‐Ci155 or anti‐Ptc co‐immunostaining. […]
# [3] = test system: Smo-mEos2 localization to the primary cilium in NIH3T3 cells; experiment: Smo-mEos2 ciliary localization in NIH3T3/Smo-mEos2 cells (immunofluorescence); assay type: cell-based; conditions: Hh ligands not present
# Experimental: NIH3T3/Smo‐mEos2 cells (Kim et al, 2014) (a gift from P. Beachy, SUSM, Stanford, CA, USA) were grown to confluence on coverslips in DMEM (Thermo Fisher Scientific, #31966021) supplemented with 10% FBS (Thermo Fisher Scientific, #10270106), 1% penicillin/streptomycin (Thermo Fisher Scientific, #15140122) and 1% MEM non‐essential amino acids (Thermo Fisher Scientific, #11140050) at 37°C. For SAG, 3‐BP and 2‐DG treatment, cells were then shifted to serum‐deprived medium containing 0.5% FBS instead of 10% FBS and incubated for 24 h with 100 nM SAG (Merck, #566660), 25 mM of 2‐DG (ROTH, #CN96.3) or 15 μM 3‐BP (Sigma‐Aldrich, #16490‐10G), respectively, or without any compound at 37°C. […]
# Only ring glands and wing discs that were processed in parallel, imaged using the same microscope settings, and properly mounted were used for quantifications. For quantification of immunohistochemical staining of CD8::GFP in ring glands, the mean pixel intensity of two regions of interest of 25 × 25 μm per ring gland was determined using ROI manager, and the average of these was used for the statistical analysis. For quantification of compartment size, wing disc folds served as morphological landmarks to outline the region of the wing pouch and the D/V boundary. The area of dorsal and ventral compartment was then determined using ROI manager. […] The mean grey value was measured using ROI manager. […]
# [4] = test system: ATP levels in ubi-AT1.03NL wing discs; experiment: Measurement of ATP using FRET-based ATP sensor AT1.03NL in explanted wing discs; assay type: cell-based, Drosophila; conditions: explanted wing discs treated with antimycin A for 2 h
# Experimental: Wing discs from up‐crawling third‐instar larvae were dissected within 10 min in Grace's medium supplemented with 5% FBS and 20 nM 20‐hydroxyecdysone (Dye et al, 2017). Dissected wing discs were mounted with their basal side up on glass‐bottom dishes (MatTek Corporation, #P35G‐1.0‐20‐C) with a double‐sided tape spacer and immobilized with a Whatman™ Cyclopore™ track‐etched polycarbonate membrane filter (GE Healthcare Life Sciences, #7062‐2513). Imaging of ubi‐AT1.03NL wing discs was performed on an Olympus IX81 microscope equipped with Yokogawa spinning disk (CSU‐W1, Yokogawa) and Ixon Ultra EMCCD camera (Andor). The sensitized emission method was used to measure FRET. Wing discs were excited with a 445 nm laser twice in a sequential manner. Upon first excitation, emission of mse‐CFP was collected using an HQ 480/40 bandpass filter. Upon second excitation, emission of cpVenus‐FRET was collected using an HQ 542/27 filter. The emission of cpVenus‐FRET has contributions from the energy transfer from mse‐CFP and bleed‐through of mse‐CFP into the HQ 542/27 filter. […]
# A custom‐written MATLAB (MathWorks) script was used to estimate the FRET efficiency from the fluorescence images. […]
# The FRET efficiency (η) was calculated as, η=IFRET/ID+IFRET […]
compound,measurement,setting,value
gramicidin A,Plasma membrane potential (DiBAC4(3) signal intensity),[1],dissipate the plasma membrane potential
same,Uptake of PAC-NAE,"[2]; wing discs incubated with 1 μM gramicidin A, compared to control discs",strongly reduces
"O=C(O)C(=O)CBr [3-BP, 3‐bromopyruvate]",Smo-mEos2 accumulation in the primary cilium,[3],accumulates in the primary cilium
C#CCCCC1(CCCCCCCCC(=O)NCCO)N=N1 [PAC-NAE],PAC-NAE accumulation in wing disc tissue,"[2]; knock-down of either ecd or Gapdh in the dorsal compartment, 1.5 μM PAC-NAE labelled Lpp particles",autonomously reduced
CCCCCC[C@H]1C(=O)O[C@H](C)[C@H](NC(=O)c2cccc(NC=O)c2O)C(=O)O[C@@H](C)[C@@H]1OC(=O)CC(C)C [antimycin A],FRET signal of ubi-AT1.03NL (cellular ATP levels),[4],strongly reduced
"O=CC[C@@H](O)[C@H](O)[C@H](O)CO [2-DG, 2‐deoxyglucose]",Smo-mEos2 accumulation in the primary cilium,[3],accumulates in the primary cilium
